pIC50: −log10 of the molar value.

The test system of the test is PCSK9. As to the kind of experiment: PCSK9 secretion assay in HepG2 cells (PCSK9 ELISA). The class given is cell-based. The following applies: HepG2 cells; for pIC50: 16 hours incubation, at least 6 concentrations. On the procedure: HepG2 cells (from ATCC, Catalog no. HB-8065) were maintained in DMEM (Invitrogen) supplemented with 10% fetal bovine serum (Invitrogen). The day prior to the PCSK9 assay, cells are seeded in 96-well collagen coated plates at 25,000 cells/well.
The compounds of the invention were stored at −20° C. until used. The test article compound was dissolved in 100% ethanol to a 50 mM stock solution. This was then diluted in FBS to a final concentration of 1 mM. This solution was placed in a sonicating water bath for 30 minutes. Subsequent dilutions were then made in FBS supplemented with an equivalent volume of ethanol and mixed by vortexing.
HepG2 cells were seeded onto a collagen coated 96-well plate (Becton Dickinson, Catalog no. 35-4407) the day prior to the assay, as described above. The next day, the cell medium was removed, washed once with 100 μL serum free DMEM to remove any residual PCSK9, and replaced with 90 μL of serum free DMEM. Ten microliters of each compound concentration prepared in FBS was then added. Each concentration of compound was tested in triplicate. The compound was incubated with the cells overnight for 16 hours. Following this incubation, 10 μL of AlamarBlue was added to each well and cells incubated for another 2 hours. The plates were then removed and AlamarBlue fluorescence was measured (excitation, 550 nm and […]) to assess cell viability. Cell culture supernatant was then diluted […] 1×RDSP Calibrator Diluent and PCSK9 ELISA was then performed with 50 μL of this diluted sample, as per the manufacturer's instructions. The ELISA was measured on a Victor X5 multilabel plate reader (PerkinElmer) at an absorbance of 450 nm with background correction measured at 550 nm (The PCSK9 Elisa kits can be purchased from R&D System, Catalog no. DPC900).
Alternatively, an IC50 could also be obtained when this type of assay was carried out using at least 6 different concentrations of the test compounds. Table 1 lists the IC50 values for the compounds tested in this assay.
On the technique in general: An ELISA detects its analyte on a solid surface through an enzyme-linked reagent.

By pIC50 is commonly meant the negative decadic logarithm of the IC50, by convention in mol/L. With `CC/C=C\C/C=C\C/C=C\C/C=C\C/C=C\CCCC(=O)NCCCCNC(=O)c1cccnc1` [Compound I-19, N-(4-((5Z,8Z,11Z,14Z,17Z)-icosa-5,8,11,14,17-pentaenamido)butyl)nicotinamide], the pIC50 is more than 4.60. Regarding `CC/C=C\C/C=C\C/C=C\C/C=C\C/C=C\CCCC(=O)N1CC[C@@H](NC(=O)C(C)(C)Oc2ccc(C(=O)c3ccc(Cl)cc3)cc2)C1` [VII-21, 2-(4-(4-chlorobenzoyl)phenoxy)-N—((R)-1-((5Z,8Z,11Z,14Z,17Z)-icosa-5,8,11,14,17-pentaenoyl)pyrrolidin-3-yl)-2-methylpropanamide], the pIC50 is more than 4.60. In the case of `CC/C=C\C/C=C\C/C=C\C/C=C\C/C=C\CCCC(=O)N1CCC(NC(=O)C(C)(C)Oc2ccc(C(=O)c3ccc(Cl)cc3)cc2)CC1` [VII-19, 2-(4-(4-chlorobenzoyl)phenoxy)-N-(1-((5Z,8Z,11Z,14Z,17Z)-icosa-5,8,11,14,17-pentaenoyl)piperidin-4-yl)-2-methylpropanamide], the pIC50 is more than 4.60. Consider `CC/C=C\C/C=C\C/C=C\C/C=C\C/C=C\CCCC(=O)N1CC[C@@H](NC(=O)c2cnc(C)c[n+]2[O-])C1` [VII-11, 2-(((R)-1-((5Z,8Z,11Z,14Z,17Z)-icosa-5,8,11,14,17-pentaenoyl)pyrrolidin-3-yl)carbamoyl)-5-methylpyrazine 1-oxide], for which the pIC50 is less than 4.30.

In turn, `CC/C=C\C/C=C\C/C=C\C/C=C\C/C=C\CCCC(=O)N1CC[C@H](N(C)C(=O)c2cnc(C)c[n+]2[O-])C1` [VII-17, 2-(((S)-1-((5Z,8Z,11Z,14Z,17Z)-icosa-5,8,11,14,17-pentaenoyl)pyrrolidin-3-yl)(methyl)carbamoyl)-5-methylpyrazine 1-oxide] showed a negative logarithm of the IC50 (pIC50) of more than 4.60. The same measure, in the same setting: the figure for `CC/C=C\C/C=C\C/C=C\C/C=C\C/C=C\CCCC(=O)N[C@H]1CCN(C(=O)c2cccnc2)C1` [Compound I-23, (5Z,8Z,11Z,14Z,17Z)—N—((S)-1-nicotinoylpyrrolidin-3-yl)icosa-5,8,11,14,17-pentaenamide] is more than 4.60; for `CC/C=C\C/C=C\C/C=C\C/C=C\C/C=C\CCCC(=O)N1CCN(C(=O)C(C)(C)Oc2ccc(C(=O)c3ccc(Cl)cc3)cc2)CC1` [VII-42, (5Z,8Z,11Z,14Z,17Z)-1-(4-(2-(4-(4-chlorobenzoyl)phenoxy)-2-methylpropanoyl)piperazin-1-yl)icosa-5,8,11,14,17-pentaen-1-one] it is more than 4.60. On the same count and under the same terms, the result for `CC/C=C\C/C=C\C/C=C\C/C=C\C/C=C\CCCC(=O)N1CC[C@@H](NC(=O)C2=CC(=O)C(C)(c3ccccc3)O2)C1` (stereo partly drawn) [VII-3, N—((R)-1-((5Z,8Z,11Z,14Z,17Z)-icosa-5,8,11,14,17-pentaenoyl)pyrrolidin-3-yl)-5-methyl-4-oxo-5-phenyl-4,5-dihydrofuran-2-carboxamide] reads more than 4.60; that for `CC/C=C\C/C=C\C/C=C\C/C=C\C/C=C\CCCC(=O)N1CCN(C(=O)c2cccnc2)CC1` [Compound I-13, (5Z,8Z,11Z,14Z,17Z)-1-(4-nicotinoylpiperazin-1-yl)icosa-5,8,11,14,17-pentaen-1-one], 4.30 to 4.60. Compound `CC/C=C\C/C=C\C/C=C\C/C=C\C/C=C\CCCC(=O)N1CCC(CNC(=O)c2cccnc2)CC1` [Compound I-31, N-((1-((5Z,8Z,11Z,14Z,17Z)-icosa-5,8,11,14,17-pentaenoyl)piperidin-4-yl)methyl)nicotinamide] showed a negative-log IC50 (pIC50) of more than 4.60.

In turn, `CC/C=C\C/C=C\C/C=C\C/C=C\C/C=C\CCCC(=O)N1CCC(NC(=O)c2cccnc2)CC1` [Compound I-22, N-(1-((5Z,8Z,11Z,14Z,17Z)-icosa-5,8,11,14,17-pentaenoyl)piperidin-4-yl)nicotinamide] gave a pIC50 of more than 4.60. Still for that read-out and setting: the figure for `CC/C=C\C/C=C\C/C=C\C/C=C\C/C=C\CCCC(=O)N1CCN(C(=O)c2ccccc2NC(=O)c2cccnc2)CC1` [Compound I-60, N-(2-(4-((5Z,8Z,11Z,14Z,17Z)-icosa-5,8,11,14,17-pentaenoyl)piperazine-1-carbonyl)phenyl)nicotinamide] is less than 4.30. For the compound `CC/C=C\C/C=C\C/C=C\C/C=C\C/C=C\CCCC(=O)NCCNC(=O)c1ccccc1` [II-1, N-(2-((5Z,8Z,11Z,14Z,17Z)-icosa-5,8,11,14,17-pentaenamido)ethyl)benzamide], the pIC50 was 4.30 to 4.60. The “lowering of PCSK9” value (at 25 and 50 μM, FIG. 1) was “significant lowering of PCSK9”.

The compound `CC/C=C\C/C=C\C/C=C\C/C=C\C/C=C\CCCC(=O)NCCOCCOCCOC` [III-2, (5Z,8Z,11Z,14Z,17Z)—N-(2-(2-(2-methoxyethoxy)ethoxy)ethyl)icosa-5,8,11,14,17-pentaenamide] had a pIC50 of less than 4.30. In turn, `CC/C=C\C/C=C\C/C=C\C/C=C\C/C=C\CCCC(=O)N1CCC(NC(=O)C2=CC(=O)C(C)(c3ccccc3)O2)CC1` (stereo not shown) [VII-1, N-(1-((5Z,8Z,11Z,14Z,17Z)-icosa-5,8,11,14,17-pentaenoyl)piperidin-4-yl)-5-methyl-4-oxo-5-phenyl-4,5-dihydrofuran-2-carboxamide] showed a pIC50 of more than 4.60. On the same count and under the same terms, the figure for `CC/C=C\C/C=C\C/C=C\C/C=C\C/C=C\CCCC(=O)N(C)[C@H]1CCN(C(=O)c2cccnc2)C1` [Compound I-49, (5Z,8Z,11Z,14Z,17Z)—N-methyl-N—((S)-1-nicotinoylpyrrolidin-3-yl)icosa-5,8,11,14,17-pentaenamide] is 4.30 to 4.60. For `CC/C=C\C/C=C\C/C=C\C/C=C\C/C=C\CCCC(=O)NCCNC(=O)[C@@H]1CCCN1C(=O)c1cccnc1` [Compound I-27, (S)—N-(2-((5Z,8Z,11Z,14Z,17Z)-icosa-5,8,11,14,17-pentaenamido)ethyl)-1-nicotinoylpyrrolidine-2-carboxamide], the negative-log IC50 (pIC50) was more than 4.60. For the compound `CC/C=C\C/C=C\C/C=C\C/C=C\C/C=C\CCCC(=O)NCCNC(=O)c1ccncn1` [II-10, N-(2-((5Z,8Z,11Z,14Z,17Z)-icosa-5,8,11,14,17-pentaenamido)ethyl)pyrimidine-4-carboxamide], the negative-log IC50 (pIC50) was less than 4.30. Consider `CC(C)c1c(C(=O)Nc2ccccc2)c(-c2ccccc2)c(-c2ccc(F)cc2)n1CC[C@@H](O)C[C@@H](O)CC(=O)O` [atorvastatin, reference compound], for which, under “10 μM atorvastatin, FIG. 2”, the PCSK9 secretion result is “increases PCSK9 secretion”. Consider `CC/C=C\C/C=C\C/C=C\C/C=C\C/C=C\CCCC(=O)N[C@H]1CC[C@H](CNC(=O)c2cccnc2)CC1` [Compound I-41, N-(((1R,4R)-4-((5Z,8Z,11Z,14Z,17Z)-icosa-5,8,11,14,17-pentaenamido)cyclohexyl)methyl)nicotinamide], for which the negative logarithm of the IC50 (pIC50) was more than 4.60.

`CC/C=C\C/C=C\C/C=C\C/C=C\C/C=C\CCCC(=O)NC[C@@H]1CCCN1C(=O)c1cccnc1` [Compound I-32, (5Z,8Z,11Z,14Z,17Z)—N—(((S)-1-nicotinoylpyrrolidin-2-yl)methyl)icosa-5,8,11,14,17-pentaenamide] had a pIC50 of more than 4.60.

For the compound `CC/C=C\C/C=C\C/C=C\C/C=C\C/C=C\CCCC(=O)N1CC[C@H](N(C)C(=O)C2=CC(=O)C(C)(c3ccccc3)O2)C1` (stereo partly drawn) [VII-9, N—((S)-1-((5Z,8Z,11Z,14Z,17Z)-icosa-5,8,11,14,17-pentaenoyl)pyrrolidin-3-yl)-N,5-dimethyl-4-oxo-5-phenyl-4,5-dihydrofuran-2-carboxamide], the pIC50 was 4.30 to 4.60. Still for that read-out and setting: the figure for `CC/C=C\C/C=C\C/C=C\C/C=C\C/C=C\CCCC(=O)N1CCC(CNC(=O)C2=CC(=O)C(C)(c3ccccc3)O2)CC1` (stereo not shown) [VII-2, N-((1-((5Z,8Z,11Z,14Z,17Z)-icosa-5,8,11,14,17-pentaenoyl)piperidin-4-yl)methyl)-5-methyl-4-oxo-5-phenyl-4,5-dihydrofuran-2-carboxamide] is more than 4.60; for `CC/C=C\C/C=C\C/C=C\C/C=C\C/C=C\CCCC(=O)N1CCC[C@@H]1CNC(=O)C(C)(C)Oc1ccc(C(=O)c2ccc(Cl)cc2)cc1` [VII-23, 2-(4-(4-chlorobenzoyl)phenoxy)-N—(((R)-1-((5Z,8Z,11Z,14Z,17Z)-icosa-5,8,11,14,17-pentaenoyl)pyrrolidin-2-yl)methyl)-2-methylpropanamide] it is more than 4.60; for `CC/C=C\C/C=C\C/C=C\C/C=C\C/C=C\CCCC(=O)NC1CCN(C(=O)c2cccnc2)CC1` [Compound I-28, (5Z,8Z,11Z,14Z,17Z)—N-(1-nicotinoylpiperidin-4-yl)icosa-5,8,11,14,17-pentaenamide] it is more than 4.60.

`CC/C=C\C/C=C\C/C=C\C/C=C\C/C=C\CCCC(=O)NCCNC(=O)C(C)(C)Oc1ccc(Cl)cc1` [II-33, (5Z,8Z,11Z,14Z,17Z)—N-(2-(2-(4-chlorophenoxy)-2-methylpropanamido)ethyl)icosa-5,8,11,14,17-pentaenamide] had a pIC50 of more than 4.60. On to `CC/C=C\C/C=C\C/C=C\C/C=C\C/C=C\CCCC(=O)Nc1nc(C)ncc1CNC(=O)c1cccnc1` [Compound I-64, N-((4-((5Z,8Z,11Z,14Z,17Z)-icosa-5,8,11,14,17-pentaenamido)-2-methylpyrimidin-5-yl)methyl)nicotinamide], for which the pIC50 was 4.30 to 4.60.

Source of the values: patent US20140093513A1, “METHODS OF LOWERING PROPROTEIN CONVERSATE SUBTILISIN/KEXIN TYPE 9 (PCSK9)” (Catabasis Pharmaceuticals, Inc., priority 2012, published 2014).
